Measured values published in patent US20100298141A1, “SUBSTITUTED PYRIDINE N-OXIDE HERBICIDES” (E. I. DU PONT DE NEMOURS AND COMPANY, priority 2007, published 2010).

Experiments:
morningglory = assay: Test A pre-/postemergence greenhouse test; type: in vivo, Ipomoea spp.; details: for Morningglory plant response rating: 0 to 100 scale; for Plant response rating, Morningglory: 0 to 100 scale where 0 is no effect and 100 is complete control
In short: (§1)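 Pre: directed soil spray on seeded loam/sand. Post: foliar spray, plants 2–10 cm, 1–2 leaf stage, applied concurrently. Vehicle: non-phytotoxic solvent + surfactant. Greenhouse ~10 d; visual injury rating vs untreated controls.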

redroot pigweed = assay: Test A pre-/postemergence greenhouse test; type: in vivo, Amaranthus retroflexus; details: for Pigweed plant response rating: 0 to 100 scale; for Plant response rating, Pigweed: 0 to 100 scale where 0 is no effect and 100 is complete control
In short: as §1

blackgrass = assay: Test C pre-/postemergence test; type: in vivo, Alopecurus myosuroides
In short: (§2)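 Test chemicals were formulated with surfactant in a non-phytotoxic solvent and sprayed both on freshly planted seeds (preemergence) and on 1- to 4-leaf plants of 2–18 cm (postemergence). Flooded-paddy pots received compound directly into 3 cm of standing water, maintained for the test.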

downy brome = assay: Test C pre-/postemergence test; type: in vivo, Bromus tectorum
In short: as §2

green foxtail = assay: Test C pre-/postemergence test; type: in vivo, Setaria viridis
In short: as §2

wild oat = assay: Test C pre-/postemergence test; type: in vivo, Avena fatua
In short: as §2

catchweed bedstraw = assay: Test C pre-/postemergence test; type: in vivo, Galium aparine
In short: as §2

bermudagrass = assay: Test C pre-/postemergence test; type: in vivo, Cynodon dactylon
In short: as §2

cocklebur = assay: Test C pre-/postemergence test; type: in vivo, Xanthium strumarium
In short: as §2

woolly cupgrass = assay: Test C pre-/postemergence test; type: in vivo, Eriochloa villosa
In short: as §2

kochia = assay: Test C pre-/postemergence test; type: in vivo, Kochia scoparia
In short: as §2

lambsquarters = assay: Test C pre-/postemergence test; type: in vivo, Chenopodium album
In short: as §2

yellow nutsedge = assay: Test C pre-/postemergence test; type: in vivo, Cyperus esculentus
In short: as §2

soybean = assay: Test C pre-/postemergence test; type: in vivo, Glycine max
In short: as §2

rice = assay: Test C flooded paddy test; type: in vivo, Oryza sativa; details: Flood
In short: (§3)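 Compound was added to standing water 3 cm above soil, flood maintained, and plants held in a greenhouse before visual scoring against controls at 13 to 15 days.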

duck salad = assay: Test C flooded paddy test; type: in vivo, Heteranthera limosa; details: Flood
In short: as §3

[1] = Postemergence, 125 g ai/ha, 0 is no effect, 100 is complete control
[2] = Postemergence, 500 g ai/ha, 0 is no effect, 100 is complete control
[3] = Preemergence, 125 g ai/ha, 0 no effect, 100 complete control
[4] = 31 g ai/ha, Preemergence, scale 0 to 100
[5] = 62 g ai/ha, preemergence, scale 0 (no effect) to 100 (complete control)
[6] = preemergence, 125 g ai/ha, scale 0 (no effect) to 100 (complete control)
[7] = 31 g ai/ha, scale 0 to 100 (0 no effect, 100 complete control)
[8] = 62 g ai/ha, scale 0 to 100, 0 no effect, 100 complete control, 13 to 15 days
[9] = 125 g ai/ha, scale 0 to 100, 0 no effect, 100 complete control, 13 to 15 days
[10] = 250 g ai/ha, scale 0 to 100 (0 no effect, 100 complete control)
[11] = 62 g ai/ha, Preemergence, scale 0 to 100
[12] = 125 g ai/ha, preemergence, scale 0 (no effect) to 100 (complete control)
[13] = Preemergence, 31 g ai/ha, scale 0 to 100 (0 no effect, 100 complete control)
[14] = preemergence, 250 g ai/ha, scale 0 (no effect) to 100 (complete control)
[15] = 62 g ai/ha, scale 0 to 100 (0 no effect, 100 complete control)
[16] = 250 g ai/ha, scale 0 to 100, 0 no effect, 100 complete control, 13 to 15 days

`Cc1cc[n+]([O-])c(S(=O)(=O)C(C)c2c(C(F)(F)F)nn(C)c2OC(F)F)c1` (stereo not drawn) [Compound 11] was tested, and the “Morningglory plant response rating” value (morningglory; [1]) was 40, the “Morningglory plant response rating” value (morningglory; [2]) was 50 and the “Morningglory plant response rating” value (morningglory; [3]) was 60. For the same compound, the “Plant response rating, Morningglory” value (morningglory; Preemergence, 500 g ai/ha) was 90, the “Pigweed plant response rating” value (redroot pigweed; [1]) was 10 and the “Pigweed plant response rating” value (redroot pigweed; [2]) was 60. The “Pigweed plant response rating” value (redroot pigweed; [3]) was 100, the “Plant response rating, Pigweed” value (redroot pigweed; Preemergence, 500 g ai/ha) was 100 and the “Blackgrass plant response rating” value (blackgrass; [4]) was 0. The “Blackgrass plant response rating” value (blackgrass; [5]) was 0, the “Plant response rating (0 to 100), Blackgrass” value (blackgrass; Preemergence, 250 g ai/ha) was 90 and the “Blackgrass plant response rating” value (blackgrass; [6]) was 90. The “Bromegrass, Downy plant response rating” value (downy brome; [4]) was 0, the “Bromegrass, Downy plant response rating” value (downy brome; [5]) was 10 and the “Plant response rating (0 to 100), Bromegrass, Downy” value (downy brome; Preemergence, 250 g ai/ha) was 60. The “Bromegrass, Downy plant response rating” value (downy brome; [6]) was 50, the “Foxtail, Green plant response rating” value (green foxtail; [4]) was 80 and the “Foxtail, Green plant response rating” value (green foxtail; [5]) was 100. The “Plant response rating (0 to 100), Foxtail, Green” value (green foxtail; Preemergence, 250 g ai/ha) was 100, the “Foxtail, Green plant response rating” value (green foxtail; [6]) was 100 and the “Oat, Wild plant response rating” value (wild oat; [4]) was 0. The “Oat, Wild plant response rating” value (wild oat; [5]) was 0, the “Plant response rating (0 to 100), Oat, Wild” value (wild oat; Preemergence, 250 g ai/ha) was 80 and the “Oat, Wild plant response rating” value (wild oat; [6]) was 20. For the same compound, the “Galium plant response rating” value (catchweed bedstraw; [4]) was 50, the “Galium plant response rating” value (catchweed bedstraw; [5]) was 100 and the “Plant response rating (0 to 100), Galium” value (catchweed bedstraw; Preemergence, 250 g ai/ha) was 100. For the same compound, the “Galium plant response rating” value (catchweed bedstraw; [6]) was 100, the “Bermudagrass plant response rating” value (bermudagrass; [4]) was 100 and the “Bermudagrass plant response rating” value (bermudagrass; [5]) was 100. The “Plant response rating (0 to 100), Bermudagrass” value (bermudagrass; Preemergence, 250 g ai/ha) was 100, the “Bermudagrass plant response rating” value (bermudagrass; [6]) was 100 and the “Cocklebur plant response rating” value (cocklebur; [4]) was 0. For the same compound, the “Cocklebur plant response rating” value (cocklebur; [5]) was 0, the “Plant response rating (0 to 100), Cocklebur” value (cocklebur; Preemergence, 250 g ai/ha) was 0 and the “Cocklebur plant response rating” value (cocklebur; [6]) was 0. For the same compound, the “Cupgrass, Woolly plant response rating” value (woolly cupgrass; [4]) was 60, the “Cupgrass, Woolly plant response rating” value (woolly cupgrass; [5]) was 80 and the “Plant response rating (0 to 100), Cupgrass, Woolly” value (woolly cupgrass; Preemergence, 250 g ai/ha) was 100. For the same compound, the “Cupgrass, Woolly plant response rating” value (woolly cupgrass; [6]) was 85, the “Kochia plant response rating” value (kochia; [4]) was 60 and the “Kochia plant response rating” value (kochia; [5]) was 100. The “Plant response rating (0 to 100), Kochia” value (kochia; Preemergence, 250 g ai/ha) was 100, the “Kochia plant response rating” value (kochia; [6]) was 100 and the “Lambsquarters plant response rating” value (lambsquarters; [4]) was 100. The “Lambsquarters plant response rating” value (lambsquarters; [5]) was 100, the “Plant response rating (0 to 100), Lambsquarters” value (lambsquarters; Preemergence, 250 g ai/ha) was 100 and the “Lambsquarters plant response rating” value (lambsquarters; [6]) was 100. The “Nutsedge, Yellow plant response rating” value (yellow nutsedge; [4]) was 70, the “Nutsedge, Yellow plant response rating” value (yellow nutsedge; [5]) was 98 and the “Plant response rating (0 to 100), Nutsedge, Yellow” value (yellow nutsedge; Preemergence, 250 g ai/ha) was 100. The “Nutsedge, Yellow plant response rating” value (yellow nutsedge; [6]) was 100, the “Soybean plant response rating” value (soybean; [4]) was 0 and the “Soybean plant response rating” value (soybean; [5]) was 0. For the same compound, the “Plant response rating (0 to 100), Soybean” value (soybean; Preemergence, 250 g ai/ha) was 100, the “Soybean plant response rating” value (soybean; [6]) was 20 and the “Plant response rating, Rice” value (rice; [7]) was 0. For the same compound, the “Plant response rating, Rice” value (rice; [8]) was 70, the “Plant response rating, Rice” value (rice; [9]) was 80 and the “Plant response rating, Rice” value (rice; [10]) was 80. For the same compound, the “Plant response rating, Ducksalad” value (duck salad; [7]) was 0, the “Plant response rating, Ducksalad” value (duck salad; [8]) was 65 and the “Plant response rating, Ducksalad” value (duck salad; [9]) was 85. The “Plant response rating, Ducksalad” value (duck salad; [10]) was 90.

For `CCc1cc[n+]([O-])c([S+]([O-])Cc2c(C(F)(F)F)nn(C)c2OCC(F)(F)F)c1` (stereo not drawn) [Compound 59], the “Plant response rating, Morningglory” value (morningglory; Postemergence, 125 g ai/ha) was 50, the “Morningglory plant response rating” value (morningglory; [2]) was 90 and the “Morningglory plant response rating” value (morningglory; [3]) was 70. The “Plant response rating, Morningglory” value (morningglory; Preemergence, 500 g ai/ha) was 100, the “Plant response rating, Pigweed” value (redroot pigweed; Postemergence, 125 g ai/ha) was 60 and the “Pigweed plant response rating” value (redroot pigweed; [2]) was 90. The “Pigweed plant response rating” value (redroot pigweed; [3]) was 100, the “Plant response rating, Pigweed” value (redroot pigweed; Preemergence, 500 g ai/ha) was 100 and the “Blackgrass plant response rating” value (blackgrass; [11]) was 95. For the same compound, the “Blackgrass plant response rating” value (blackgrass; [12]) was 95, the “Plant response rating, Blackgrass” value (blackgrass; [13]) was 60 and the “Blackgrass plant response rating” value (blackgrass; [14]) was 100. For the same compound, the “Bromegrass, Downy plant response rating” value (downy brome; [11]) was 40, the “Bromegrass, Downy plant response rating” value (downy brome; [12]) was 90 and the “Plant response rating, Bromegrass, Downy” value (downy brome; [13]) was 20. The “Bromegrass, Downy plant response rating” value (downy brome; [14]) was 100, the “Foxtail, Green plant response rating” value (green foxtail; [11]) was 95 and the “Foxtail, Green plant response rating” value (green foxtail; [12]) was 100. The “Plant response rating, Foxtail, Green” value (green foxtail; [13]) was 0, the “Foxtail, Green plant response rating” value (green foxtail; [14]) was 100 and the “Oat, Wild plant response rating” value (wild oat; [11]) was 85. The “Oat, Wild plant response rating” value (wild oat; [12]) was 90, the “Plant response rating, Oat, Wild” value (wild oat; [13]) was 60 and the “Oat, Wild plant response rating” value (wild oat; [14]) was 90. The “Galium plant response rating” value (catchweed bedstraw; [11]) was 100, the “Galium plant response rating” value (catchweed bedstraw; [12]) was 100 and the “Plant response rating, Galium” value (catchweed bedstraw; [13]) was 0. For the same compound, the “Galium plant response rating” value (catchweed bedstraw; [14]) was 100, the “Bermudagrass plant response rating” value (bermudagrass; 62 g ai/ha, Preemergence, scale 0 to 100 (0 no effect, 100 complete control)) was 100 and the “Bermudagrass plant response rating” value (bermudagrass; [12]) was 100. The “Plant response rating, Bermudagrass” value (bermudagrass; [13]) was 70, the “Bermudagrass plant response rating” value (bermudagrass; [14]) was 100 and the “Cocklebur plant response rating” value (cocklebur; [11]) was 0. The “Cocklebur plant response rating” value (cocklebur; [12]) was 30, the “Plant response rating, Cocklebur” value (cocklebur; [13]) was 0 and the “Cocklebur plant response rating” value (cocklebur; [14]) was 80. The “Cupgrass, Woolly plant response rating” value (woolly cupgrass; [11]) was 80, the “Cupgrass, Woolly plant response rating” value (woolly cupgrass; [12]) was 80 and the “Plant response rating, Cupgrass, Woolly” value (woolly cupgrass; [13]) was 0. For the same compound, the “Cupgrass, Woolly plant response rating” value (woolly cupgrass; [14]) was 100, the “Kochia plant response rating” value (kochia; [11]) was 70 and the “Kochia plant response rating” value (kochia; [12]) was 100. For the same compound, the “Plant response rating, Kochia” value (kochia; [13]) was 0, the “Kochia plant response rating” value (kochia; [14]) was 100 and the “Lambsquarters plant response rating” value (lambsquarters; [11]) was 100. For the same compound, the “Lambsquarters plant response rating” value (lambsquarters; [12]) was 100, the “Plant response rating, Lambsquarters” value (lambsquarters; [13]) was 80 and the “Lambsquarters plant response rating” value (lambsquarters; [14]) was 100. For the same compound, the “Nutsedge, Yellow plant response rating” value (yellow nutsedge; [11]) was 30, the “Nutsedge, Yellow plant response rating” value (yellow nutsedge; [12]) was 85 and the “Plant response rating, Nutsedge, Yellow” value (yellow nutsedge; [13]) was 0. For the same compound, the “Nutsedge, Yellow plant response rating” value (yellow nutsedge; [14]) was 95, the “Soybean plant response rating” value (soybean; [11]) was 10 and the “Soybean plant response rating” value (soybean; [12]) was 100. For the same compound, the “Soybean plant response rating” value (soybean; [14]) was 100, the “Plant response rating, Rice” value (rice; [15]) was 10 and the “Plant response rating, Rice” value (rice; [16]) was 70. For the same compound, the “Plant response rating, Ducksalad” value (duck salad; [15]) was 40 and the “Plant response rating, Ducksalad” value (duck salad; [16]) was 90.
